The source of these data is ChEMBL document CHEMBL3526083, “Prediction of relative in vivo metabolite exposure from in vitro data using two model drugs: dextromethorphan and omeprazole” (Drug Metab Dispos, 2012).

Holding throughout (type): ADME
Data set [1] concerns the target T1, UDP-glucuronosyltransferase 1A3 (Homo sapiens, UniProt P35503).
T1 sequence (P35503 whole entry): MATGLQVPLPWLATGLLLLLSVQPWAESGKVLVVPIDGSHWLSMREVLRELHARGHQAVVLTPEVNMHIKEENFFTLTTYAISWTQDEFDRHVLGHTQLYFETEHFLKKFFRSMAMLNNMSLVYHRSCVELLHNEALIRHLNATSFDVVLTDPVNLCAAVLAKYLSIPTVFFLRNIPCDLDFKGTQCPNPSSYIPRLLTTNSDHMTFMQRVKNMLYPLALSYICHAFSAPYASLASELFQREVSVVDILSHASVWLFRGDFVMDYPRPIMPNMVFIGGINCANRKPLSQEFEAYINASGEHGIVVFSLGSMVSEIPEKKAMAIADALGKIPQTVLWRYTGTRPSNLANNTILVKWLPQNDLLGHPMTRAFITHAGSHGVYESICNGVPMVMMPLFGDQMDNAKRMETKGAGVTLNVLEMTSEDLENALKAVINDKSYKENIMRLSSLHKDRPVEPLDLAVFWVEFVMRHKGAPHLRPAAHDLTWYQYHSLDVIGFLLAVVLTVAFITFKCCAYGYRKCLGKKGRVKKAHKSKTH
Nature of the data set: Drug metabolism assessed as recombinat UGT1A3 (unknown origin) -mediated dextrophan-O-glucuronide formation.

The target of data set [2] is T2, UDP-glucuronosyltransferase 1A4 (Homo sapiens, UniProt P22310).
T2 sequence (P22310 whole entry): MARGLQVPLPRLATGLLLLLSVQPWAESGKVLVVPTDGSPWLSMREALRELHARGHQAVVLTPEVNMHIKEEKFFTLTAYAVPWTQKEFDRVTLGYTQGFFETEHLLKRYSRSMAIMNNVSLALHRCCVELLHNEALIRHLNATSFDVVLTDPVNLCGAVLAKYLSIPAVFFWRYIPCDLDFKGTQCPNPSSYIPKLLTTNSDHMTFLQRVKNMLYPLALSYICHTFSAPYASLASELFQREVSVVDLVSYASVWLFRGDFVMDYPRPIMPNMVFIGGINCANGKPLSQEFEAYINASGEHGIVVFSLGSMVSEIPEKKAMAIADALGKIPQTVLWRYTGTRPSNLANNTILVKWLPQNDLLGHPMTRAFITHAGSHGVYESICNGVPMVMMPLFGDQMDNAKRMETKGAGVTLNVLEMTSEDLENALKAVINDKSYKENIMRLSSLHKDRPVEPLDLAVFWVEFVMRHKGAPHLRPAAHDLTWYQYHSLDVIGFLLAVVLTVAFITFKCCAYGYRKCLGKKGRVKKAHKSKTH
Nature of the data set: Drug metabolism assessed as recombinat UGT1A4 (unknown origin) -mediated dextrophan-O-glucuronide formation.

In data set [3] the target is T3, UDP-glucuronosyltransferase 1A9 (Homo sapiens, UniProt O60656).
T3 sequence (O60656 whole entry): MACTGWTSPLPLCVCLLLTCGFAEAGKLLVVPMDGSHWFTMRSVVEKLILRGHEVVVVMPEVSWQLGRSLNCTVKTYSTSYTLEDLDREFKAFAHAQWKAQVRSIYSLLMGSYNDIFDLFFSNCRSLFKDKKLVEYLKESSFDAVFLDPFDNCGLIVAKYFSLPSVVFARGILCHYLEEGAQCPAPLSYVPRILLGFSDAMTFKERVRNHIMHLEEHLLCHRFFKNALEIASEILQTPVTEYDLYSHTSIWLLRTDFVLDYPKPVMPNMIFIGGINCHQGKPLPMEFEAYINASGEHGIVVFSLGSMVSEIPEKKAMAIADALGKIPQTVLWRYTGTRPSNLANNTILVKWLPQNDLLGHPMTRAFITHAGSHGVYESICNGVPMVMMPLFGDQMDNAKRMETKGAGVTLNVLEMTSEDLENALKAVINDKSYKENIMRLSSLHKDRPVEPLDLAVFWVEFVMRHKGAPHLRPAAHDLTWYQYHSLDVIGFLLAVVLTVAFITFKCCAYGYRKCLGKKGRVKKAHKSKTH
The data set is described as follows: Drug metabolism assessed as recombinat UGT1A9 (unknown origin) -mediated dextrophan-O-glucuronide formation.

In data set [4] the test system is Liver microsome. The data set is described as follows: Drug metabolism in human liver microsomes assessed as 3-hydroxymorphinan formation measured as microsomal fraction unbound. In general terms: Microsomes from liver hold many membrane-bound enzymes, among them those of drug oxidation.
Data set [5] deals with Liver microsome. Nature of the data set: Drug metabolism in human liver microsomes assessed as dextrophan-O-glucuronide formation measured per mg of microsomal protein.
Data set [6] concerns Liver microsome. Nature of the data set: Drug metabolism in human liver microsomes assessed as dextrophan-O-glucuronide formation.
Data set [7] has as its system Liver microsome. Nature of the data set: Drug metabolism in human liver microsomes assessed as dextrophan-O-glucuronide formation measured as intrinsic unbound clearance.
The test system of data set [8] is Liver microsome. The data set is described as follows: Drug metabolism in human liver microsomes assessed as dextrophan-O-glucuronide formation in presence of 2% BSA.
Data set [9] deals with Liver microsome. Nature of the data set: Drug metabolism in human liver microsomes assessed as dextrophan-O-glucuronide formation measured as microsomal fraction unbound in presence of 2% BSA.
Data set [10] concerns Liver microsome. Nature of the data set: Drug metabolism in human liver microsomes assessed as dextrophan-O-glucuronide formation measured as plasma fraction unbound in presence of 2% BSA.
Data set [11] has as its target T4, UDP-glucuronosyltransferase 2B15 (Homo sapiens, UniProt P54855).
T4 sequence (P54855 whole entry): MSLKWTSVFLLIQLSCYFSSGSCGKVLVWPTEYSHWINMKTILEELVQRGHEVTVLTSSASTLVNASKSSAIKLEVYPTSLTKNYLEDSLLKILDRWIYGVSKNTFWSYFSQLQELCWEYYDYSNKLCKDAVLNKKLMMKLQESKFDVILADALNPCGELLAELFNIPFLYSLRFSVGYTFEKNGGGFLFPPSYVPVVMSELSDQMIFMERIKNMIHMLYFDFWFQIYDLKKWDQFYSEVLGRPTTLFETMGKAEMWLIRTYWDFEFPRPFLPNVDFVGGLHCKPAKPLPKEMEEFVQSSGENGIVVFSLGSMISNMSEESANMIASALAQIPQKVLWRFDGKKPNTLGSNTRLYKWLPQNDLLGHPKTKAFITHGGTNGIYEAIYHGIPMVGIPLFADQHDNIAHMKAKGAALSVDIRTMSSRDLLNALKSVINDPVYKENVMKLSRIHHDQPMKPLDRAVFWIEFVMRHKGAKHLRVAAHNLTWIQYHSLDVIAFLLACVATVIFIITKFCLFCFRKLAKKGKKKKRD
Nature of the data set: Drug metabolism assessed as recombinat UGT2B15 (unknown origin) -mediated dextrophan-O-glucuronide formation.

Data set [12] deals with Liver microsome. Nature of the data set: Drug metabolism in human liver microsomes assessed as 3-hydroxymorphinan formation measured per mg of microsomal protein.

In general, Vmax refers to the rate approached at saturating substrate. For orientation: Km means the substrate concentration at which the rate is half of its maximum. Take `CN1CC[C@@]23CCCC[C@@H]2[C@@H]1Cc1ccc(O)cc13` [DEXTRORPHAN]: the Drug metabolism entry was “metabolite_not_detected” in data set [1], “metabolite_not_detected” in data set [2], “metabolite_not_detected” in data set [3] and “metabolite_detected” in [11]. Also, the Fu is listed as 1 in data set [4], 0.88 in data set [9] and 0.55 in data set [10]. Also, the maximum rate (Vmax) came to 2 nmol/min in data set [5] and 0.8 nmol/min in data set [12]. For the same compound, the Michaelis-Menten constant (Km) came to 690 µM in data set [6] and 210 µM in data set [8]. Further, the CL free in data set [7] worked out at 2.9 µL/min/mg.
